Measured values reported in PubChem BioAssay AID2060511 (Molecular Pharmacology Branch, DTP, NCI, 2025).

System: 422866-222-R5-J1-PDC spheroids with HUVEC/MSC, viability
Assay: Anticancer human tumor 422866-222-R5-J1-PDC patient-derived pancreatic adenocarcinoma cell line growth inhibition [GQUAD]
Details: for IC50: curve of first compound; for viability, T/C: stronger effect = lower value
Procedure, shortened: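 Tumor cells were grown as complex spheroids with HUVEC endothelial cells and mesenchymal stem cells as stroma. G-quadruplex stabilizers were combined with targeted agents over half-log dilutions from near the clinical Cmax, or from 10 microM.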

[1] = second compound 0.0316 µM, first compound 0.0316 µM
[2] = second compound 0.0316 µM, first compound 0.1 µM
[3] = second compound 0.0316 µM, first compound 0.316 µM
[4] = second compound 0.0316 µM, first compound 1 µM
[5] = second compound 0.0316 µM, first compound 3.16 µM
[6] = second compound 0.0316 µM, first compound 10 µM
[7] = second compound 0.1 µM, first compound 0.0316 µM
[8] = second compound 0.1 µM, first compound 0.1 µM
[9] = second compound 0.1 µM, first compound 0.316 µM
[10] = second compound 0.1 µM, first compound 1 µM
[11] = second compound 0.1 µM, first compound 3.16 µM
[12] = second compound 0.1 µM, first compound 10 µM
[13] = second compound 0.316 µM, first compound 0.0316 µM
[14] = second compound 0.316 µM, first compound 0.1 µM
[15] = second compound 0.316 µM, first compound 0.316 µM
[16] = second compound 0.316 µM, first compound 1 µM
[17] = second compound 0.316 µM, first compound 3.16 µM
[18] = second compound 0.316 µM, first compound 10 µM
[19] = second compound 1 µM, first compound 0.0316 µM
[20] = second compound 1 µM, first compound 0.1 µM
[21] = second compound 1 µM, first compound 0.316 µM
[22] = second compound 1 µM, first compound 1 µM
[23] = second compound 1 µM, first compound 3.16 µM
[24] = second compound 1 µM, first compound 10 µM
[25] = second compound 3.16 µM, first compound 0.0316 µM
[26] = second compound 3.16 µM, first compound 0.1 µM
[27] = second compound 3.16 µM, first compound 0.316 µM
[28] = second compound 3.16 µM, first compound 1 µM
[29] = second compound 3.16 µM, first compound 3.16 µM
[30] = second compound 3.16 µM, first compound 10 µM
[31] = second compound 10 µM, first compound 0.0316 µM
[32] = second compound 10 µM, first compound 0.1 µM
[33] = second compound 10 µM, first compound 0.316 µM
[34] = second compound 10 µM, first compound 1 µM
[35] = second compound 10 µM, first compound 3.16 µM
[36] = second compound 10 µM, first compound 10 µM
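Also: spheroids exposed to compounds for seven days before reading.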
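For viability, T/C in this document: percent viability relative to DMSO vehicle control taken as 100%.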

COc1cc(C2c3cc4c(cc3C(OC3OC5COC(C)OC5C(O)C3O)C3COC(=O)C23)OCO4)cc(OC)c1O (stereo unspecified) + Cc1[nH]c2ccc(F)cc2c1-c1nc2c3cccnc3c3ncccc3c2[nH]1
IC50 (second compound 0.0316 µM): 1570 nM
IC50 (second compound 0.1 µM): 835 nM
IC50 (second compound 0.316 µM): 2050 nM
IC50 (second compound 1 µM): 1920 nM
IC50 (second compound 3.16 µM): 945 nM
IC50 (second compound 10 µM): 2230 nM
viability, T/C [1]: 108%
viability, T/C [2]: 96.3%
viability, T/C [3]: 86.6%
viability, T/C [4]: 51.3%
viability, T/C [5]: 47.8%
viability, T/C [6]: 40.2%
viability, T/C [7]: 100%
viability, T/C [8]: 104%
viability, T/C [9]: 68.5%
viability, T/C [10]: 52%
viability, T/C [11]: 48.6%
viability, T/C [12]: 36.6%
viability, T/C [13]: 97.7%
viability, T/C [14]: 87.9%
viability, T/C [15]: 75.2%
viability, T/C [16]: 56.8%
viability, T/C [17]: 45.5%
viability, T/C [18]: 39.8%
viability, T/C [19]: 97.1%
viability, T/C [20]: 92.2%
viability, T/C [21]: 85.8%
viability, T/C [22]: 59.7%
viability, T/C [23]: 42.5%
viability, T/C [24]: 38.5%
viability, T/C [25]: 82.8%
viability, T/C [26]: 90.3%
viability, T/C [27]: 75.5%
viability, T/C [28]: 48.6%
viability, T/C [29]: 48.5%
viability, T/C [30]: 38.5%
viability, T/C [31]: 87.8%
viability, T/C [32]: 89.2%
viability, T/C [33]: 77.4%
viability, T/C [34]: 56.5%
viability, T/C [35]: 46.5%
viability, T/C [36]: 46.8%

COc1cccc2c1C(=O)c1c(O)c3c(c(O)c1C2=O)CC(O)(C(=O)CO)CC3OC1CC(N)C(O)C(C)O1 (stereo unspecified) + Cc1[nH]c2ccc(F)cc2c1-c1nc2c3cccnc3c3ncccc3c2[nH]1
IC50 (second compound 0.0316 µM): 474 nM
IC50 (second compound 0.1 µM): 782 nM
IC50 (second compound 0.316 µM): 639 nM
IC50 (second compound 1 µM): 463 nM
IC50 (second compound 3.16 µM): 349 nM
IC50 (second compound 10 µM): 529 nM
viability, T/C [1]: 108%
viability, T/C [2]: 70.2%
viability, T/C [3]: 63.6%
viability, T/C [4]: 37.3%
viability, T/C [5]: 30%
viability, T/C [6]: 34.7%
viability, T/C [7]: 113%
viability, T/C [8]: 65.6%
viability, T/C [9]: 69.2%
viability, T/C [10]: 53.4%
viability, T/C [11]: 34%
viability, T/C [12]: 35%
viability, T/C [13]: 92%
viability, T/C [14]: 67.9%
viability, T/C [15]: 54%
viability, T/C [16]: 55.5%
viability, T/C [17]: 31.7%
viability, T/C [18]: 35.9%
viability, T/C [19]: 93.9%
viability, T/C [20]: 65.7%
viability, T/C [21]: 54.5%
viability, T/C [22]: 46.3%
viability, T/C [23]: 37.2%
viability, T/C [24]: 36.1%
viability, T/C [25]: 73.4%
viability, T/C [26]: 65.6%
viability, T/C [27]: 48.1%
viability, T/C [28]: 45.8%
viability, T/C [29]: 31.6%
viability, T/C [30]: 37.8%
viability, T/C [31]: 77.7%
viability, T/C [32]: 64.9%
viability, T/C [33]: 52.5%
viability, T/C [34]: 48%
viability, T/C [35]: 34.3%
viability, T/C [36]: 30.4%

O=c1[nH]cc(F)c(=O)[nH]1 + Cc1[nH]c2ccc(F)cc2c1-c1nc2c3cccnc3c3ncccc3c2[nH]1
IC50 (second compound 0.0316 µM): > 10000 nM
IC50 (second compound 0.1 µM): > 10000 nM
IC50 (second compound 0.316 µM): > 10000 nM
IC50 (second compound 1 µM): > 10000 nM
IC50 (second compound 3.16 µM): > 10000 nM
IC50 (second compound 10 µM): > 10000 nM
viability, T/C [1]: 95%
viability, T/C [2]: 101%
viability, T/C [3]: 101%
viability, T/C [4]: 93.8%
viability, T/C [5]: 84.5%
viability, T/C [6]: 69.1%
viability, T/C [7]: 97.9%
viability, T/C [8]: 111%
viability, T/C [9]: 105%
viability, T/C [10]: 84.2%
viability, T/C [11]: 79.9%
viability, T/C [12]: 60.5%
viability, T/C [13]: 103%
viability, T/C [14]: 95.8%
viability, T/C [15]: 114%
viability, T/C [16]: 73.2%
viability, T/C [17]: 82.6%
viability, T/C [18]: 74%
viability, T/C [19]: 101%
viability, T/C [20]: 105%
viability, T/C [21]: 101%
viability, T/C [22]: 101%
viability, T/C [23]: 89.6%
viability, T/C [24]: 72.9%
viability, T/C [25]: 85.7%
viability, T/C [26]: 99.3%
viability, T/C [27]: 95.4%
viability, T/C [28]: 81.4%
viability, T/C [29]: 86.9%
viability, T/C [30]: 64%
viability, T/C [31]: 74.9%
viability, T/C [32]: 79.7%
viability, T/C [33]: 85.3%
viability, T/C [34]: 72%
viability, T/C [35]: 75.5%
viability, T/C [36]: 53.3%
